Laboratory results reported in PMC12396409, “Screening and hit evaluation of a microbial metabolite library against the pathogenic Plasmodium falciparum and Toxoplasma gondii parasites” (International Journal for Parasitology: Drugs and Drug …, 2025).
Read-outs that look alike come from different tables or passages of the source.

What was measured:
[1] = test system: P. falciparum 3D7 parasites; experiment: P. falciparum growth inhibition assay, 2-cycle (120 h treatment), delayed-death screen and dose-response; assay type: cell-based, Plasmodium falciparum; details: 120 h; for activity at 2 µg/mL: Plasmodium falciparum
[2] = test system: P. falciparum 3D7 parasites; experiment: P. falciparum growth inhibition assay, 1-cycle (72 h treatment), SYBR DNA staining (library screen at 2 μg/mL and dose-response); assay type: cell-based, Plasmodium falciparum; details: 72 h; for activity at 2 µg/mL: Plasmodium falciparum
[3] = test system: T. gondii RH strain (RH-Tub-eYFP) tachyzoites; experiment: microbe, parasite or virus in culture; assay type: cell-based, Toxoplasma gondii
[4] = Toxoplasma gondii, 72 h, library screen at 2 μg/mL, 72 h, % growth, replicate 1; read-out: Tg_72h_%Growth_Rep1
[5] = Toxoplasma gondii, 72 h, library screen at 2 μg/mL, 72 h, % growth, replicate 2; read-out: Tg_72h_%Growth_Rep2
[6] = 3D7, P. falciparum, screen at 2 μg/mL, replicate 1, read-out: Pf_120h_%Growth_Rep1
[7] = 3D7, P. falciparum, screen at 2 μg/mL, replicate 2, read-out: Pf_120h_%Growth_Rep2
[8] = 3D7, P. falciparum, screen at 2 μg/mL, replicate 1, read-out: Pf_72h_%Growth_Rep1
[9] = 3D7, P. falciparum, screen at 2 μg/mL, replicate 2, read-out: Pf_72h_%Growth_Rep2
[10] = Toxoplasma gondii, 72 h, T. gondii, 72 h, screen at 2 μg/mL, replicate 1; read-out: Tg_72h_%Growth_Rep1
[11] = Toxoplasma gondii, 72 h, T. gondii, 72 h, screen at 2 μg/mL, replicate 2; read-out: Tg_72h_%Growth_Rep2
[12] = P. falciparum, parasite screen 2 μg/mL, % growth, replicate 1
[13] = P. falciparum, parasite screen 2 μg/mL, % growth, replicate 2
[14] = T. gondii, 72 h, parasite screen 2 μg/mL, % growth, replicate 1
[15] = T. gondii, 72 h, parasite screen 2 μg/mL, % growth, replicate 2
[16] = library screen at 2 μg/mL, % growth, replicate 1
[17] = library screen at 2 μg/mL, % growth, replicate 2
[18] = library screen at 2 μg/mL, 72 h, % growth, replicate 1
[19] = library screen at 2 μg/mL, 72 h, % growth, replicate 2
[20] = 3D7, 120 h, P. falciparum, screen at 2 μg/mL, replicate 1, read-out: Pf_120h_%Growth_Rep1
[21] = 3D7, 120 h, P. falciparum, screen at 2 μg/mL, replicate 2, read-out: Pf_120h_%Growth_Rep2
[22] = 3D7, 72 h, P. falciparum, screen at 2 μg/mL, replicate 1, read-out: Pf_72h_%Growth_Rep1
[23] = 3D7, 72 h, P. falciparum, screen at 2 μg/mL, replicate 2, read-out: Pf_72h_%Growth_Rep2
[24] = 3D7, 120 h, library screen at 2 μg/mL, % growth, replicate 1, read-out: Pf_120h_%Growth_Rep1
[25] = 3D7, 120 h, library screen at 2 μg/mL, % growth, replicate 2, read-out: Pf_120h_%Growth_Rep2
[26] = 3D7, 72 h, library screen at 2 μg/mL, % growth, replicate 1, read-out: Pf_72h_%Growth_Rep1
[27] = 3D7, 72 h, library screen at 2 μg/mL, % growth, replicate 2, read-out: Pf_72h_%Growth_Rep2
[28] = P. falciparum, screen at 2 μg/mL, replicate 1
[29] = P. falciparum, screen at 2 μg/mL, replicate 2
[30] = T. gondii, 72 h, screen at 2 μg/mL, replicate 1
[31] = T. gondii, 72 h, screen at 2 μg/mL, replicate 2

C[C@@H](O)[C@H]1C(=O)N2C(C(=O)O)=C(S[C@@H]3CN[C@H](CNS(N)(=O)=O)C3)[C@H](C)[C@H]12 [Doripenem]
activity at 2 µg/mL ([1]; 3D7, library screen at 2 μg/mL, % growth, replicate 1, read-out: Pf_120h_%Growth_Rep1): 85.1%
activity at 2 µg/mL ([1]; 3D7, library screen at 2 μg/mL, % growth, replicate 2, read-out: Pf_120h_%Growth_Rep2): 121%
activity at 2 µg/mL ([2]; 3D7, library screen at 2 μg/mL, % growth, replicate 1, read-out: Pf_72h_%Growth_Rep1): 81.9%
activity at 2 µg/mL ([2]; 3D7, library screen at 2 μg/mL, % growth, replicate 2, read-out: Pf_72h_%Growth_Rep2): 66.8%
percent parasite growth at 2 µg/mL [3, 4]: 119%
percent parasite growth at 2 µg/mL [3, 5]: 89.3%

CCCCCCCCCCC[C@@H](C[C@@H]1OC(=O)[C@H]1CCCCCC)OC(=O)[C@H](CC(C)C)NC=O [Tetrahydrolipstatin]
activity at 2 µg/mL [1, 6]: 171%
activity at 2 µg/mL [1, 7]: 93.3%
activity at 2 µg/mL [2, 8]: 74.2%
activity at 2 µg/mL [2, 9]: 88.8%
percent parasite growth at 2 µg/mL [3, 10]: 88.5%
percent parasite growth at 2 µg/mL [3, 11]: 98.4%

CCCCC[C@@]1(OC(=O)CCC(=O)O)CC[C@]2(CC[C@H](C)[C@@H](C/C=C(C)/C=C/[C@H](O)[C@@H](C)/C=C/C(=O)O)O2)O[C@H]1/C=C/C(C)=C/C(=O)O [Reveromycin D]
Pf_120h_%Growth_Rep1 [1, 12]: 51.02%
Pf_120h_%Growth_Rep2 [1, 13]: 15.46%
Pf_72h_%Growth_Rep1 [2, 12]: 62.63%
Pf_72h_%Growth_Rep2 [2, 13]: 21.41%
Tg_72h_%Growth_Rep1 [3, 14]: 109.29%
Tg_72h_%Growth_Rep2 [3, 15]: 94.72%

C/C=C(/C)c1cc(O)c(C)c2c1Oc1c(C)c(O)cc(/C(C)=C\C)c1C(=O)O2 [Folipastatin]
Pf_120h_%Growth_Rep1 [1, 16]: 81.33%
Pf_120h_%Growth_Rep2 [1, 17]: 105.49%
Pf_72h_%Growth_Rep1 [2, 16]: 84.22%
Pf_72h_%Growth_Rep2 [2, 17]: 87.89%
Tg_72h_%Growth_Rep1 [3, 18]: 114.14%
Tg_72h_%Growth_Rep2 [3, 19]: 93.99%

CO[C@H]1[C@@H](O)[C@@H](C)O[C@H](O[C@H]2[C@H](Oc3cccc4c(O)c5c(=O)oc6ccc(C)c7c(=O)oc(c34)c5c67)O[C@H](C)[C@H](O)[C@@H]2O)[C@@H]1O [Chartreusin]
activity at 2 µg/mL [1, 20]: 144%
activity at 2 µg/mL [1, 21]: 96.8%
activity at 2 µg/mL [2, 22]: 101%
activity at 2 µg/mL [2, 23]: 88.7%
percent parasite growth at 2 µg/mL [3, 10]: 85.7%
percent parasite growth at 2 µg/mL [3, 11]: 97.4%

CC[C@H](C)[C@@H](OC(C)=O)[C@@H](C)C1=CC(=O)C2=C(O[C@]3(C)CC[C@H]4O[C@@H](C(C)(C)O)CC[C@]4(C)[C@H]3[C@@H]2O)C1=O [Cochlioquinone A]
activity at 2 µg/mL [1, 6]: 75.8%
activity at 2 µg/mL [1, 7]: 74.1%
activity at 2 µg/mL [2, 8]: 79.2%
activity at 2 µg/mL [2, 9]: 80.1%
percent parasite growth at 2 µg/mL ([3]; Toxoplasma gondii; T. gondii, 72 h, screen at 2 μg/mL, replicate 1; read-out: Tg_72h_%Growth_Rep1): 161%
percent parasite growth at 2 µg/mL ([3]; Toxoplasma gondii; T. gondii, 72 h, screen at 2 μg/mL, replicate 2; read-out: Tg_72h_%Growth_Rep2): 90.2%

COC[C@@H](C[C@H]1O[C@@](O)([C@H](O)[C@@H]2C[C@H](OC)[C@@H](O)CC/C=C(C)/C=C/[C@@H](O[C@@H]3O[C@@H](C)[C@H](OC)[C@@H](O)[C@@H]3O)[C@H](C)/C=C(C)/C=C(C)/C=C(\C)C(=O)O2)[C@H](C)[C@@H](O)[C@H]1C)OC1C[C@](C)(O)[C@@H](O[C@H]2C[C@@H](OC)[C@H](O)[C@@H](C)O2)[C@H](C)O1 (stereo partly drawn) [Apoptolidin]
activity at 2 µg/mL [1, 24]: 34.5%
activity at 2 µg/mL [1, 25]: 23.8%
activity at 2 µg/mL [2, 26]: 59%
activity at 2 µg/mL [2, 27]: 49.8%
percent parasite growth at 2 µg/mL [3, 4]: 76.4%
percent parasite growth at 2 µg/mL [3, 5]: 73%

CCC(=O)[C@@H](C)[C@@H](O)[C@H](C)C[C@@H](C)[C@H]1OC(=O)C[C@@]2(O)CC=C(C)[C@H](O2)/C(C)=C/CCC[C@@H](O[C@H]2C[C@@H](O)[C@H](O)[C@@H](C)O2)/C=C/[C@H](C)C[C@H]1C [Venturicidin B]
Pf_120h_%Growth_Rep1 [1, 28]: 23.65%
Pf_120h_%Growth_Rep2 [1, 29]: 5.91%
Pf_72h_%Growth_Rep1 [2, 28]: 25.34%
Pf_72h_%Growth_Rep2 [2, 29]: 5.57%
Tg_72h_%Growth_Rep1 [3, 30]: 0.31%
Tg_72h_%Growth_Rep2 [3, 31]: 1.90%

Spirolaxine
Pf_120h_%Growth_Rep1 [1, 12]: 32.74%
Pf_120h_%Growth_Rep2 [1, 13]: 18.31%
Pf_72h_%Growth_Rep1 [2, 12]: 54.30%
Pf_72h_%Growth_Rep2 [2, 13]: 41.64%
Tg_72h_%Growth_Rep1 [3, 14]: 20.75%
Tg_72h_%Growth_Rep2 [3, 15]: 22.73%

Nc1cc2nc3ccccc3oc-2cc1=O [Questiomycin A]
Pf_120h_%Growth_Rep1 [1, 12]: 44.88%
Pf_120h_%Growth_Rep2 [1, 13]: 66.03%
Pf_72h_%Growth_Rep1 [2, 12]: 72.04%
Pf_72h_%Growth_Rep2 [2, 13]: 68.55%
Tg_72h_%Growth_Rep1 [3, 14]: 83.12%
Tg_72h_%Growth_Rep2 [3, 15]: 77.23%

COc1cc(=O)oc(/C=C/C=C/C=C/C(C)=C/[C@@]2(C)O[C@H](C)[C@](C)(O)[C@H]2O)c1C [Citreoviridin]
Pf_120h_%Growth_Rep1 [1, 28]: 141.81%
Pf_120h_%Growth_Rep2 [1, 29]: 93.96%
Pf_72h_%Growth_Rep1 [2, 28]: 92.20%
Pf_72h_%Growth_Rep2 [2, 29]: 86.47%
Tg_72h_%Growth_Rep1 [3, 30]: 86.37%
Tg_72h_%Growth_Rep2 [3, 31]: 89.97%

C[C@H]1CCCC(=O)CCCCCc2cc(O)cc(O)c2C(=O)O1 [Zearalanone]
activity at 2 µg/mL [1, 20]: 102%
activity at 2 µg/mL [1, 21]: 77.7%
activity at 2 µg/mL [2, 22]: 31.9%
activity at 2 µg/mL [2, 23]: 78.2%
percent parasite growth at 2 µg/mL [3, 10]: 97%
percent parasite growth at 2 µg/mL [3, 11]: 107%

CO[C@H]1C[C@H](O[C@H]2[C@H](C)O[C@@H](O[C@@H]3/C(C)=C/C[C@@H]4C[C@@H](C[C@]5(C=C[C@H](C)[C@@H](C(C)C)O5)O4)OC(=O)[C@@H]4C=C(C)[C@@H](O)[C@H]5OC/C(=C\C=C\[C@@H]3C)[C@]54O)C[C@@H]2OC)O[C@@H](C)[C@@H]1O [Avermectin B1b]
Pf_120h_%Growth_Rep1 [1, 16]: 7.97%
Pf_120h_%Growth_Rep2 [1, 17]: -7.80%
Pf_72h_%Growth_Rep1 [2, 16]: 8.18%
Pf_72h_%Growth_Rep2 [2, 17]: 3.73%
Tg_72h_%Growth_Rep1 [3, 18]: 74.43%
Tg_72h_%Growth_Rep2 [3, 19]: 75.78%

C[C@@](O)(/C=C/[C@H]1CC=CC(=O)O1)[C@@H](C[C@@H](O)\C=C/C=C\C=C\CO)OP(=O)(O)O [Fostriecin]
activity at 2 µg/mL [1, 24]: 36.9%
activity at 2 µg/mL [1, 25]: 56%
activity at 2 µg/mL [2, 26]: 29.1%
activity at 2 µg/mL [2, 27]: 38.8%
percent parasite growth at 2 µg/mL [3, 4]: 113%
percent parasite growth at 2 µg/mL [3, 5]: 102%
